PubChem BioAssay (NCI)
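Tested at 5 concentrations; 48 h exposure; 96-well plates; endpoints linearly interpolated, else capped at highest concentration. TGI: concentration producing complete growth inhibition.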

Tests used:
Assay in all cases: inhibition of tumour cell growth, NCI panel, 48 h
IGROV1 ovarian = system: IGROV1 ovarian
SK-MEL-2 melanoma = system: SK-MEL-2 melanoma
SF-268 CNS = system: SF-268 CNS
K-562 leukemia = system: K-562 leukemia
ACHN renal = system: ACHN renal
HOP-62 NSCLC = system: HOP-62 NSCLC
HCT-15 colon = system: HCT-15 colon
RPMI-8226 leukemia = system: RPMI-8226 leukemia
SK-MEL-28 melanoma = system: SK-MEL-28 melanoma
A549 NSCLC = system: A549 NSCLC
786-0 renal = system: 786-0 renal
MCF7 breast = system: MCF7 breast
DU-145 prostate = system: DU-145 prostate
PC-3 prostate = system: PC-3 prostate
NCI/ADR-RES ovarian = system: NCI/ADR-RES ovarian
MALME-3M melanoma = system: MALME-3M melanoma
HS 578T breast = system: HS 578T breast
HL-60(TB) leukemia = system: HL-60(TB) leukemia
T-47D breast = system: T-47D breast
SN12C renal = system: SN12C renal
COLO 205 colon = system: COLO 205 colon
BT-549 breast = system: BT-549 breast
RXF 393 renal = system: RXF 393 renal
KM12 colon = system: KM12 colon
SK-MEL-5 melanoma = system: SK-MEL-5 melanoma
EKVX NSCLC = system: EKVX NSCLC
TK-10 renal = system: TK-10 renal
OVCAR-5 ovarian = system: OVCAR-5 ovarian
CCRF-CEM leukemia = system: CCRF-CEM leukemia
U251 CNS = system: U251 CNS
A498 renal = system: A498 renal
SK-OV-3 ovarian = system: SK-OV-3 ovarian
SF-295 CNS = system: SF-295 CNS
LOX IMVI melanoma = system: LOX IMVI melanoma
NCI-H23 lung = system: NCI-H23 lung
SF-539 CNS = system: SF-539 CNS
M14 melanoma = system: M14 melanoma
UACC-62 melanoma = system: UACC-62 melanoma
MDA-MB-435 = system: MDA-MB-435
MDA-N = system: MDA-N
HCC-2998 colon = system: HCC-2998 colon
CAKI-1 renal = system: CAKI-1 renal
NCI-H460 lung = system: NCI-H460 lung
MOLT-4 leukemia = system: MOLT-4 leukemia
OVCAR-8 ovarian = system: OVCAR-8 ovarian
HCT-116 colon = system: HCT-116 colon
SW-620 colon = system: SW-620 colon
OVCAR-3 ovarian = system: OVCAR-3 ovarian
HT29 colon = system: HT29 colon
NCI-H522 lung = system: NCI-H522 lung
MDA-MB-231 breast = system: MDA-MB-231 breast
UACC-257 melanoma = system: UACC-257 melanoma
OVCAR-4 ovarian = system: OVCAR-4 ovarian
NCI-H226 lung = system: NCI-H226 lung
SNB-19 CNS = system: SNB-19 CNS
SR leukemia = system: SR leukemia
UO-31 renal = system: UO-31 renal
HOP-92 NSCLC = system: HOP-92 NSCLC
SNB-75 CNS = system: SNB-75 CNS

With `O=C1C=CC(=O)c2c1ccc1c3ccccc3n(CCCCCCCCn3c4ccccc4c4ccc5c(c43)C(=O)C=CC5=O)c21` the TGI (IGROV1 ovarian) was > 100 µM, the TGI (SK-MEL-2 melanoma) was > 100 µM and the TGI (SF-268 CNS) was > 100 µM. The TGI (K-562 leukemia) was > 100 µM, the TGI (ACHN renal) was > 100 µM and the TGI (HOP-62 NSCLC) was > 100 µM. For the same molecule, the TGI (HCT-15 colon) was > 100 µM, the TGI (RPMI-8226 leukemia) was > 100 µM and the TGI (SK-MEL-28 melanoma) was > 100 µM. For the same molecule, the TGI (A549 NSCLC) was > 100 µM, the TGI (786-0 renal) was > 100 µM and the TGI (MCF7 breast) was > 100 µM. The TGI (DU-145 prostate) was > 100 µM, the TGI (PC-3 prostate) was > 100 µM and the TGI (NCI/ADR-RES ovarian) was > 100 µM. The TGI (MALME-3M melanoma) was > 100 µM, the TGI (HS 578T breast) was > 100 µM and the TGI (HL-60(TB) leukemia) was > 100 µM. The TGI (T-47D breast) was > 100 µM, the TGI (SN12C renal) was > 100 µM and the TGI (COLO 205 colon) was > 100 µM. The TGI (BT-549 breast) was > 100 µM, the TGI (RXF 393 renal) was > 100 µM and the TGI (KM12 colon) was > 100 µM. The TGI (SK-MEL-5 melanoma) was > 100 µM, the TGI (EKVX NSCLC) was > 100 µM and the TGI (TK-10 renal) was > 100 µM. The TGI (OVCAR-5 ovarian) was > 100 µM, the TGI (CCRF-CEM leukemia) was > 100 µM and the TGI (U251 CNS) was > 100 µM. The TGI (A498 renal) was > 100 µM, the TGI (SK-OV-3 ovarian) was > 100 µM and the TGI (SF-295 CNS) was > 100 µM. The TGI (LOX IMVI melanoma) was > 100 µM, the TGI (NCI-H23 lung) was > 100 µM and the TGI (SF-539 CNS) was > 100 µM. For the same molecule, the TGI (M14 melanoma) was > 100 µM, the TGI (UACC-62 melanoma) was > 100 µM and the TGI (MDA-MB-435) was > 100 µM. For the same molecule, the TGI (MDA-N) was > 100 µM, the TGI (HCC-2998 colon) was > 100 µM and the TGI (CAKI-1 renal) was > 100 µM. The TGI (NCI-H460 lung) was > 100 µM, the TGI (MOLT-4 leukemia) was > 100 µM and the TGI (OVCAR-8 ovarian) was > 100 µM. For the same molecule, the TGI (HCT-116 colon) was > 100 µM, the TGI (SW-620 colon) was > 100 µM and the TGI (OVCAR-3 ovarian) was > 100 µM. For the same molecule, the TGI (HT29 colon) was > 100 µM, the TGI (NCI-H522 lung) was > 100 µM and the TGI (MDA-MB-231 breast) was > 100 µM. For the same molecule, the TGI (UACC-257 melanoma) was > 100 µM, the TGI (OVCAR-4 ovarian) was > 100 µM and the TGI (NCI-H226 lung) was > 100 µM. For the same molecule, the TGI (SNB-19 CNS) was > 100 µM.

`C=C1C(=O)O[C@@H]2O[C@@]3(C)CC[C@H]4[C@H](C)CC[C@@H]1[C@@]24O3` was tested, and the TGI (IGROV1 ovarian) was 28.3 µM, the TGI (SK-MEL-2 melanoma) was 46.9 µM and the TGI (SF-268 CNS) was > 100 µM. For the same molecule, the TGI (K-562 leukemia) was > 100 µM, the TGI (ACHN renal) was 26.9 µM and the TGI (HOP-62 NSCLC) was > 100 µM. The TGI (HCT-15 colon) was 27.6 µM, the TGI (RPMI-8226 leukemia) was 36.8 µM and the TGI (SK-MEL-28 melanoma) was > 100 µM. The TGI (A549 NSCLC) was > 100 µM, the TGI (786-0 renal) was 41.3 µM and the TGI (MCF7 breast) was 25.3 µM. For the same molecule, the TGI (DU-145 prostate) was 27.5 µM, the TGI (PC-3 prostate) was 52.7 µM and the TGI (MALME-3M melanoma) was 86.4 µM. For the same molecule, the TGI (HS 578T breast) was > 100 µM, the TGI (HL-60(TB) leukemia) was > 100 µM and the TGI (T-47D breast) was 38.1 µM. It also gave a TGI (SN12C renal) of 59.2 µM, a TGI (COLO 205 colon) of 34.3 µM and a TGI (BT-549 breast) of 22.2 µM. The TGI (RXF 393 renal) was 54.7 µM, the TGI (KM12 colon) was 21.3 µM and the TGI (SK-MEL-5 melanoma) was > 100 µM. The TGI (EKVX NSCLC) was 48.7 µM, the TGI (TK-10 renal) was 32.7 µM and the TGI (OVCAR-5 ovarian) was > 100 µM. The TGI (CCRF-CEM leukemia) was 11.8 µM, the TGI (U251 CNS) was > 100 µM and the TGI (A498 renal) was > 100 µM. The TGI (SK-OV-3 ovarian) was > 100 µM, the TGI (SF-295 CNS) was > 100 µM and the TGI (LOX IMVI melanoma) was 40.1 µM. The TGI (SR leukemia) was 47 µM, the TGI (UO-31 renal) was 63 µM and the TGI (NCI-H23 lung) was 40.1 µM. The TGI (SF-539 CNS) was 32.2 µM, the TGI (M14 melanoma) was > 100 µM and the TGI (UACC-62 melanoma) was 29.7 µM. The TGI (MDA-MB-435) was > 100 µM, the TGI (MDA-N) was > 100 µM and the TGI (HCC-2998 colon) was 41 µM. For the same molecule, the TGI (CAKI-1 renal) was 46.4 µM, the TGI (HOP-92 NSCLC) was 12.4 µM and the TGI (NCI-H460 lung) was 65.9 µM. The TGI (MOLT-4 leukemia) was 38.9 µM, the TGI (HCT-116 colon) was 32.2 µM and the TGI (SW-620 colon) was > 100 µM. For the same molecule, the TGI (OVCAR-3 ovarian) was 93.5 µM, the TGI (HT29 colon) was 83.5 µM and the TGI (NCI-H522 lung) was 62.8 µM. It also gave a TGI (MDA-MB-231 breast) of 81.8 µM, a TGI (UACC-257 melanoma) of 47.9 µM and a TGI (OVCAR-4 ovarian) of 36.3 µM. The TGI (NCI-H226 lung) was > 100 µM and the TGI (SNB-19 CNS) was > 100 µM.

For `C[C@]12CC[C@H](O)CC1=CC[C@@H]1C2CC[C@]2(C)c3n[nH]nc3CC12` (stereo not given in full), the TGI (SNB-75 CNS) was > 100 µM, the TGI (IGROV1 ovarian) was > 100 µM and the TGI (SF-268 CNS) was > 100 µM. The TGI (K-562 leukemia) was > 100 µM, the TGI (ACHN renal) was > 100 µM and the TGI (HOP-62 NSCLC) was > 100 µM. The TGI (SK-MEL-28 melanoma) was > 100 µM, the TGI (A549 NSCLC) was > 100 µM and the TGI (786-0 renal) was > 100 µM. For the same molecule, the TGI (MCF7 breast) was > 100 µM, the TGI (DU-145 prostate) was > 100 µM and the TGI (PC-3 prostate) was > 100 µM. The TGI (MALME-3M melanoma) was > 100 µM, the TGI (HS 578T breast) was > 100 µM and the TGI (HL-60(TB) leukemia) was > 100 µM. The TGI (T-47D breast) was > 100 µM, the TGI (SN12C renal) was > 100 µM and the TGI (COLO 205 colon) was > 100 µM. The TGI (BT-549 breast) was > 100 µM, the TGI (RXF 393 renal) was > 100 µM and the TGI (KM12 colon) was > 100 µM. The TGI (SK-MEL-5 melanoma) was > 100 µM, the TGI (EKVX NSCLC) was > 100 µM and the TGI (TK-10 renal) was > 100 µM. For the same molecule, the TGI (OVCAR-5 ovarian) was > 100 µM, the TGI (CCRF-CEM leukemia) was > 100 µM and the TGI (U251 CNS) was > 100 µM. The TGI (A498 renal) was > 100 µM, the TGI (SK-OV-3 ovarian) was > 100 µM and the TGI (SF-295 CNS) was > 100 µM. The TGI (SR leukemia) was 96.4 µM, the TGI (UO-31 renal) was > 100 µM and the TGI (NCI-H23 lung) was > 100 µM. The TGI (SF-539 CNS) was > 100 µM, the TGI (M14 melanoma) was > 100 µM and the TGI (UACC-62 melanoma) was > 100 µM. For the same molecule, the TGI (MDA-MB-435) was > 100 µM, the TGI (MDA-N) was > 100 µM and the TGI (HCC-2998 colon) was > 100 µM. For the same molecule, the TGI (CAKI-1 renal) was > 100 µM, the TGI (HOP-92 NSCLC) was > 100 µM and the TGI (NCI-H460 lung) was > 100 µM. For the same molecule, the TGI (MOLT-4 leukemia) was > 100 µM, the TGI (OVCAR-8 ovarian) was > 100 µM and the TGI (HCT-116 colon) was > 100 µM. For the same molecule, the TGI (SW-620 colon) was > 100 µM, the TGI (OVCAR-3 ovarian) was > 100 µM and the TGI (HT29 colon) was > 100 µM. The TGI (NCI-H522 lung) was > 100 µM, the TGI (MDA-MB-231 breast) was > 100 µM and the TGI (UACC-257 melanoma) was > 100 µM. The TGI (OVCAR-4 ovarian) was > 100 µM, the TGI (NCI-H226 lung) was > 100 µM and the TGI (SNB-19 CNS) was > 100 µM.
